Test results published in patent US9180107B2 (NANOPHARMACEUTICALS LLC, priority 2009, dated 2015).
Read-outs that look alike come from different tables or passages of the source. Marks after values point to notes of the source that are not given here.

Columns and labels:
[1] = system: human breast cancer MDA-MB-231 cells (MDA-MB); assay: Anti-proliferation (total cell counts) in bellows cell culture system with pharmacodynamic modeling; assay type: cell-based; details: for IC50 / Imaxk (maximum effect on rate of growth) / ImaxR (maximum effect on success of replication): MDA-MB 231
Protocol: (§1) Each cell culture system is a compressible (bellows) 500 mL bottle which contains cell culture medium and specially-treated polymer flakes to which cells spontaneously attach and grow. Through moving bellows and porous membranes, the level of the medium in the bottle changes periodically. Consequently, the cells are alternately submerged in the culture medium, then exposed to 5% CO2/95% air which creates a dynamic interface between air and medium on the cell surface that maximizes nutrient uptake and oxygen transfer. The system provides a low shear, high aeration and foam-free culture environment. Proprietary treatment of the surfaces of the flakes enables seating and harvesting of cells and secreted proteins are readily isolated from the perfusate.
(§2) In a non-perfusion bellows cell culture system that was also used, the medium in each bottle was replaced by fresh medium every 24 h. In the perfusion bellows cell culture system, medium was progressively refreshed over 24 h, i.e., one complete change of medium occurred over 24 h.
In establishing the system, 5×10^7 cells were seeded in perfusion and non-perfusion bellows bottles and incubated overnight at 37° C. After that, flakes were harvested, trypsinized and cells were collected. Cell numbers were counted. […] For experiments, the perfusion bellows cell culture system was run for 2 d prior to starting experiments. […] Cell cultures were then exposed to 1% FBS-containing medium. Tetrac or nano-tetrac was added to the medium in the reservoir bottle to achieve the final concentrations reported for each experiment.
(§3) The time course of cell counts of the various cancer lines treated with different concentrations of tetrac or nano-tetrac was modeled by utilizing the pooled approach in NONMEM VI (version 6.2). All time points and treatment arms within each experiment were modeled simultaneously. A mechanism-based model (see Bulitta et al., 2009. Antimicrob. Agents Chemother. 53:46-56) was adapted to describe the proliferation of cancer cells and the inhibition of proliferation by tetrac. This model assumes two populations of cells in different phases of the cell cycle: cells that are preparing for replication (phase 1) and cells that are immediately “pre-replication” (phase 2). Cells transition from phase 1 to phase 2 by a first-order growth rate constant, while replication from phase 2 to phase 1 is assumed to be fast (see FIG. 2).
(§4) [formula] [formula] [formula] where C1 is the number of cells in phase 1, C2 the number of cells in phase 2, k21 the first order rate constant for replication (transition from phase 2 to phase 1), and k12 the first-order growth rate constant for transition from phase 1 to phase 2. The total number of cells Ct is the sum of C1 and C2. Rep is the replication efficiency factor which is described by:
(§5) [formula] where Cmax is the maximum number of cells. Without tetrac, the replication efficiency factor approaches 2, which reflects a 100% probability of successful replication. InhR describes the inhibitory effect of tetrac on the probability of successful replication:
(§6) [formula] Where ImaxR is the maximum effect of tetrac on probability of successful replication and IC50R is the tetrac concentration needed to achieve a half-maximal effect. Inhk describes the inhibitory effect of tetrac on the rate of growth:
(§7) [formula] Where Imaxk is the maximum effect of tetrac on rate of growth and IC50k is the tetrac concentration needed to achieve a half-maximal effect. Results

[2] = system: Human glioblastoma U87MG cells; assay: as above; assay type: cell-based; details: for decrease in cell counts compared with untreated control cells: 7-d treatment; for IC50: Homo sapiens, U-87 MG, nano-tetrac IC50 are hypothetical concentrations assuming all bound tetrac is available
Protocol: as §1, §2
In establishing the system, 5×10^7 cells were seeded in perfusion and non-perfusion bellows bottles and incubated overnight at 37° C. After that, flakes were harvested, trypsinized and cells were collected. Cell numbers were counted. The numbers of cells that attached to were 10-15×10^6 per bottle. For experiments, the perfusion bellows cell culture system was run for 2 d prior to starting experiments. The cell numbers at this point were about 30-50×10^6 cells/bottle. Cell cultures were then exposed to 1% FBS-containing medium. Tetrac or nano-tetrac was added to the medium in the reservoir bottle to achieve the final concentrations reported for each experiment.
as §3, §4, §5, §6, §7

MDA-MB cells = assay: Pro-apoptotic gene expression by RT-PCR; assay type: cell-based, human; details: 10^−6 M
Protocol: MDA-MB cells were treated daily with 10^−6M of tetrac or nano-tetrac in bellows perfusion culture system. Cells were harvested after 3 days of treatment and total RNA was extracted. RT-PCR was conducted as described in Example 1, infra.
Total RNA was isolated as described previously. (See Lin et al., 2008. Carcinogenesis. 29:62-69). First strand complementary DNAs were synthesized from 1 μg of total RNA using oligo dT and AMV Reverse Transcriptase (Promega, Madison, Wis.). First-strand cDNA templates were amplified for GAPDH, c-fos, PIG3, c-Jun, and BAD mRNAs by polymerase chain reaction (PCR), using a hot start (Ampliwax, Perkin Elmer, Foster City, Calif.). Primer sequences were GAPDH [5′-[…]-3′ (forward) (SEQ ID NO: 1) and 5′-[…]-3′ (reverse) (SEQ ID NO:2)], c-fos [5′-[…]-3′(forward) (SEQ ID NO:3) and 5′-CAGTCA-[…]-3′ (reverse) (SEQ ID NO:4)], PIG3 [5′-[…]-[…]-3′(forward) (SEQ ID NO:5) and 5′-[…]-3′ (reverse) (SEQ ID NO:6)], c-jun [5′-[…]-3′ (forward) (SEQ ID NO:7) and 5′-[…]-3′ (reverse) (SEQ ID NO:8)] and BAD [5′-GTT-[…]-3′ (forward) (SEQ ID NO:9) and 5′-[…]-3′ (reverse) (SEQ ID NO:10)]. The PCR cycle was an initial step of 95° C. for 3 min, followed by 94° C. for 1 min, 55° C. for 1 min, 72° C. for 1 min, then 25 cycles and a final cycle of 72° C. for 8 min. […] Photographs were scanned under direct light for quantitation and illustration. […]

[3] = study 2, rich data from one single study over 19 days
[4] = U87MG, model parameter estimate

- IC50 ([1]; Homo sapiens, 456 h, study 2, rich data from one single study over 19 days, read-out: IC50R (effect on success of replication)): 87 nM
- IC50 ([1]; Homo sapiens, 456 h, study 2, rich data from one single study over 19 days, read-out: IC50k (effect on rate of growth)): 5100 nM
- IC50 ([1]; Homo sapiens, study 1, sparse sampling, data pooled from two studies, read-out: IC50R (effect on success of replication)): 4400 nM
- IC50 ([1]; Homo sapiens, study 1, sparse sampling, data pooled from two studies, read-out: IC50k (effect on rate of growth)): 7.6 nM
- IC50 ([2]; U87MG, model parameter estimate, read-out: IC50R (effect on success of replication)): 47400 nM
- IC50 ([2]; U87MG, model parameter estimate, read-out: IC50k (effect on rate of growth)): 47 nM
SMILES: O=C(O)Cc1cc(I)c(Oc2cc(I)c(O)c(I)c2)c(I)c1 [tetrac, Tetraiodothyroacetic acid]
- inhibition at 0.1 µM ([1]; Homo sapiens, MDA-MB-231, 192 h, read-out: inhibitory effect on cell growth): 38%
- Imaxk (maximum effect on rate of growth) ([1]; study 1, sparse sampling, data pooled from two studies): 0.19
- ImaxR (maximum effect on success of replication) ([1]; study 1, Imax at time = 0, decreases with time): 0.53^a
- ImaxR (maximum effect on success of replication) [1, 3]: 0.20
- Imaxk (maximum effect on rate of growth) [1, 3]: 0.85
- decrease in cell counts compared with untreated control cells ([2]; 10^−7 M): > 28%
- decrease in cell counts compared with untreated control cells ([2]; 10^−8 M): more than 15%
- ImaxR (maximum effect on success of replication) [2, 4]: 0.92
- Imaxk (maximum effect on rate of growth) [2, 4]: 0.57
- expression of c-fos (MDA-MB cells): increased expression
- expression of c-jun (MDA-MB cells): increased expression
